Data as given in patent publication US20120309811A1, “P-GLYCOPROTEIN-SPECIFIC NON-COMPETITIVE PEPTIDE AND PEPTIDOMIMETIC MODULATORS” (UNIVERSITE CLAUDE BERNARD - LYON 1, priority 2009, published 2012).

Assays:
Assay type in all cases: cell-based
[1] = molecular target: T1, P-gp (Homo sapiens, UniProt P08183); test: Flow cytometry, inhibition of mitoxantrone efflux in NIH3T3 cells expressing P-gp
T1 construct: expressed in transfected cells; host or cells: NIH3T3 (ATCC CRL-1658), stably transfected with retroviral vector pHaMDR1/A
T1 sequence (P08183 whole entry): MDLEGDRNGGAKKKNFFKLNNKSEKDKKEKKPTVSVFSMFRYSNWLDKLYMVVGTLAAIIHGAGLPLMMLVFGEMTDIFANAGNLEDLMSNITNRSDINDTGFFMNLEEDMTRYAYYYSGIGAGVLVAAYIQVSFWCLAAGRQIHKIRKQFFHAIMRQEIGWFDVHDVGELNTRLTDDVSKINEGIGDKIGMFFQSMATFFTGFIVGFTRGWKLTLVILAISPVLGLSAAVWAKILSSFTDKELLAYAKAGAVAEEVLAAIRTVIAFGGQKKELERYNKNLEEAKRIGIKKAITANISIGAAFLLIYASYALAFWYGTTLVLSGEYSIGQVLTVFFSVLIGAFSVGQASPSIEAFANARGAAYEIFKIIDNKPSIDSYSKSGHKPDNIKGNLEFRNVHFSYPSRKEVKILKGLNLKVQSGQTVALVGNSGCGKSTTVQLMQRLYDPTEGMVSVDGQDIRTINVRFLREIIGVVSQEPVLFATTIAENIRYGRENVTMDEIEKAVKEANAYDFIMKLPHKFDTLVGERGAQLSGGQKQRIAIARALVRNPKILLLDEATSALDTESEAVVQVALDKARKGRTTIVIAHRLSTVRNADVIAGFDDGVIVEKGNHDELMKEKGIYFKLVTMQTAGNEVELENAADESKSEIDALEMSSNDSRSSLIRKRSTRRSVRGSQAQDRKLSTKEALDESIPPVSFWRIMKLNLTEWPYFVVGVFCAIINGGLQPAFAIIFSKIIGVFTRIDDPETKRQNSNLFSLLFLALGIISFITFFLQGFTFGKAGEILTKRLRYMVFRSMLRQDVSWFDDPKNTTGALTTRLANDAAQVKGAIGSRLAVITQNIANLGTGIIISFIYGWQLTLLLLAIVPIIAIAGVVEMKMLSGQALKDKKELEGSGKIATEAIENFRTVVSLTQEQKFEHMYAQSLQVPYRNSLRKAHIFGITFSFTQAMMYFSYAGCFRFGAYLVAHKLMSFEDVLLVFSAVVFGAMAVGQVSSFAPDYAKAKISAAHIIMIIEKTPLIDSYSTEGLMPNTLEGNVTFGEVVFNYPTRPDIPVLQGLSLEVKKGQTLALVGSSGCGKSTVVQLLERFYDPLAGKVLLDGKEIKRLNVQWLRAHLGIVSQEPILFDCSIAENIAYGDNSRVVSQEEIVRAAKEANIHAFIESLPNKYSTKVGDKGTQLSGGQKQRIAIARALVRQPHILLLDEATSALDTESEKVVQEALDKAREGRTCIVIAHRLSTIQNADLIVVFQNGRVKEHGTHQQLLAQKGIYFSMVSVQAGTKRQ
Excerpt: (§1) The HEK-293 human fibroblast line (ATCC cell collection CRL-1573) is transfected with either BCRP (Robey R. W. et al. 2003, Br. J. Cancer 89(10) 1971-1978, [32]) or ABCC1, cloned into the pcDNA3.1 expression vector (Invitrogen), or with the empty pcDNA3.1 vector. The NIH3T3 cell line (ATCC CRL-1658) was stably transfected with pHaMDR1/A (Cardarelli et al. 1995 Cancer Res 55 1086-1091, [33]), which is a retroviral vector that expresses the wild-type MDR1 protein. The BHK-21 cell line (ATCC CCL-10) was transfected with MRP1 cloned into the pcDNA3.1 expression vector, or the empty pcDNA3.1 vector. The cells are maintained in culture in DMEM glutamax II (Invitrogen) supplemented with 10% of fetal bovine serum and 1% of penicillin/streptomycin. The data are processed with Sigmaplot V11 (http://www.systat.com/), and the equation for mathematical adjustment of the experimental data for calculating the IC50 values: f=a×(1−exp(−b×x)) (a=slope, b=intercept on the y-axis).
(§2) The cells expressing P-gp, BCRP and MRP, and their corresponding controls, are placed in the presence of 10 and 2 μM of mitoxantrone for the first two transporters and of 1 μM of daunorubicin for the 3rd. Substrate accumulation is carried out for 30 minutes at 37° C. in the presence or absence of varied concentrations of the molecules tested, at a final DMSO (dimethyl sulfoxide) concentration of 0.5%. After washing with PBS (phosphate buffered saline), the cells are incubated in medium containing the same concentrations of molecules tested as previously, for 1 h at 37° C. The intracellular fluorescence of mitoxantrone and daunorubicin anticancer agent is measured with the FACscan flow cytometer (Becton Dickinson, Mountain, View, Calif.). The drugs are excited at 488 nm. The emission of mitoxantrone is measured at 650 nm, whereas the emission of daunorubicin is measured at 530 nm. The effectiveness of the molecules tested is expressed by equation 1: % effectiveness=100×(FA−FBG)/(FC−FBG), where FA corresponds to the intracellular level of substrate measured in the cells overexpressing ABCG2 (corresponding to the lowest level of fluorescence in the absence of inhibitor), FC corresponds to the fluorescence in the control cells transfected with the empty vector (and therefore to the maximum accumulation of substrate in the cells) and FBG corresponds to the fluorescence measured in the absence of substrate and in the presence of inhibitor.
(§3) The inhibitory effect of the compounds is quantified by measuring, by flow cytometry, the efflux of an anticancer drug transported by the pump under consideration, i.e. mitoxantrone for P-gp and BCRP and daunorubicin for MRP1. It is compared with that of the reference product, reversin 121. The products are tested at 10 μM, then at 2 μM for those which block at least 80% of the efflux of mitoxantrone, and for some, a more complete concentration range is tested so as to establish the concentration value producing 50% inhibition, IC50, as indicated in FIG. 3.

[2] = molecular target: T2, MRP1 (Homo sapiens, UniProt P33527); test: Flow cytometry, inhibition of daunorubicin efflux in cells transfected with MRP1; details: human, probe daunorubicin, 10 μM compound, read-out: % pump inhibition at 10 μM of compound, MRP1
T2 construct: expressed in transfected cells; host or cells: BHK-21 (ATCC CCL-10) with MRP1 in pcDNA3.1; HEK-293 transfected with ABCC1 in pcDNA3.1 is also described
T2 sequence (P33527 whole entry): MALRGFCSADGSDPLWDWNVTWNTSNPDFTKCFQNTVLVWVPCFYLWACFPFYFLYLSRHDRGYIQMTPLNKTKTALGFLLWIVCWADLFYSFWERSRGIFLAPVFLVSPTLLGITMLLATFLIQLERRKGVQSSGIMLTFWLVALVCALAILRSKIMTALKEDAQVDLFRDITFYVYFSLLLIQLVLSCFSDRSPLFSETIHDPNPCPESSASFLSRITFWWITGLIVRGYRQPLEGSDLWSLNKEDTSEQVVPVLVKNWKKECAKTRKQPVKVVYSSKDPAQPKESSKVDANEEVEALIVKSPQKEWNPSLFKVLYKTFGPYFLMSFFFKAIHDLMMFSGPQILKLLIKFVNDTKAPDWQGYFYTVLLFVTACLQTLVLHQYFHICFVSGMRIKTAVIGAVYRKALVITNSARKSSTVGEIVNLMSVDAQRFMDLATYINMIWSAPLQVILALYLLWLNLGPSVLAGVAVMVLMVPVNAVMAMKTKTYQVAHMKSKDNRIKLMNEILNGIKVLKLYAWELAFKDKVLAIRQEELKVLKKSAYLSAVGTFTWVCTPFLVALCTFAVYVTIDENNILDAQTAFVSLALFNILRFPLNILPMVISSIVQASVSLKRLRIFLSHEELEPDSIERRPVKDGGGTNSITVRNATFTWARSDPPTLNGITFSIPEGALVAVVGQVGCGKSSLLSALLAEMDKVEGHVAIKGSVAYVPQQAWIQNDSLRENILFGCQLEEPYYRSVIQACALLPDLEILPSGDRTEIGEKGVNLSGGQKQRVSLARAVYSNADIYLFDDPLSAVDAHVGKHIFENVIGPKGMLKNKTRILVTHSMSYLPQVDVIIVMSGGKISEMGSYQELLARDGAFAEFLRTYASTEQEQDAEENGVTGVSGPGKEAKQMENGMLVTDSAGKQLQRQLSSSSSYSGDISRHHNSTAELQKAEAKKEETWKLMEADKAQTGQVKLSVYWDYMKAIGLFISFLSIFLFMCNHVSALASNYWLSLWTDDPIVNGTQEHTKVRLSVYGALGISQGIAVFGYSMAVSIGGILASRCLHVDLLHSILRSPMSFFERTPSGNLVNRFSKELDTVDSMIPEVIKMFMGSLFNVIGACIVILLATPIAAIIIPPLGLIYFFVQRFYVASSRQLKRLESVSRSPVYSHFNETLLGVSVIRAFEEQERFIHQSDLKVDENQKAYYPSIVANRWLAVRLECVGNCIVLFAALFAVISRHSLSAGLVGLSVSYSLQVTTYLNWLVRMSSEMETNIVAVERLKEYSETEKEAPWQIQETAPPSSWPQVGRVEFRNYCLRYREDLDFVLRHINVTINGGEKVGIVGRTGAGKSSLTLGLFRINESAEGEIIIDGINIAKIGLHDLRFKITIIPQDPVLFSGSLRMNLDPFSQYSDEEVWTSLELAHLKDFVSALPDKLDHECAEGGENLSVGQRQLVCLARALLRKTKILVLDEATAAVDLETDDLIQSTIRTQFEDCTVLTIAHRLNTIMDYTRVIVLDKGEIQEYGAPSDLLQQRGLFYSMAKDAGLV
Excerpt: as §1, §2
The inhibitory effect of the compounds is quantified by measuring, by flow cytometry, the efflux of an anticancer drug transported by the pump under consideration, i.e. mitoxantrone for P-gp and BCRP and daunorubicin for MRP1. It is compared with that of the reference product, reversin 121. […]

[3] = molecular target: T3, BCRP (Homo sapiens, UniProt Q9UNQ0); test: Flow cytometry, inhibition of mitoxantrone efflux in HEK-293 cells transfected with BCRP; details: 10 μM compound
T3 construct: expressed in transfected cells; host or cells: HEK-293 (ATCC CRL-1573), pcDNA3.1 expression vector (Invitrogen)
T3 sequence (Q9UNQ0 1-655): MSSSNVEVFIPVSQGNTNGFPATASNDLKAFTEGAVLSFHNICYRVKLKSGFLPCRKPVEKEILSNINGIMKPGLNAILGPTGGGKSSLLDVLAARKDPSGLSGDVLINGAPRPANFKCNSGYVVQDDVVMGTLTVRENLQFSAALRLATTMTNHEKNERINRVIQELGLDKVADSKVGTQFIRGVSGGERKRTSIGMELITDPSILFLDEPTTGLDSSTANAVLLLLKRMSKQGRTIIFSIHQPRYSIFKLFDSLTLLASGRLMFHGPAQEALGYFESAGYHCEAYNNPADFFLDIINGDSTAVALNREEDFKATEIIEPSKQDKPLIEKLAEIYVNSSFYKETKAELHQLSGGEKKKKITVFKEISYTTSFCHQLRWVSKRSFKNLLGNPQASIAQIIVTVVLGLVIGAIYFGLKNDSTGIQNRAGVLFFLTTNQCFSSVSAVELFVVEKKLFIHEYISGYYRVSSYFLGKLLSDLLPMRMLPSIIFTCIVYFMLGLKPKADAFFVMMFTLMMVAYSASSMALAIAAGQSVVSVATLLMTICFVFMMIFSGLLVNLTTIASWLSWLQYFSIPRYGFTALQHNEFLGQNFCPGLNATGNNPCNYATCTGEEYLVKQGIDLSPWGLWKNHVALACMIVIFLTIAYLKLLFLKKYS
Excerpt: as §1, §2, §3

[4] = tested on: NIH3T3 cells expressing or not expressing P-gp; test: Cytotoxicity test (MTT), cell survival after 72 h
Procedure: The cells are seeded in a proportion of 10 000 per well in 96-well plates and incubated for 24 hours at 37° C. under 5% CO2. Varied concentrations of compounds Nos 2, 3, 4, 5 and 6, up to 20 times the IC50, are then added. The cytotoxicity is evaluated colorinnetrically with 3-(4,5-dimethylthiazol-2-yl)-2,5-diphenyltetrazolium bromide (MTT).
Increasing concentrations of compound No. 4 or No. 6 are applied to NIH3T3 cells expressing or not expressing P-gp. The cell survival is measured after 72 h and is expressed as a percentage. At 10 times the half-maximum-effect concentration, these two compounds are not toxic. Above this, the toxicity of compound No. 4 remains negligible, while that of compound No. 6 remains limited.

[5] = molecular target: T1, P-gp; test: Kinetics of inhibition of daunorubicin efflux produced by P-gp (mode of inhibition); details: Lineweaver & Burke double reciprocal representation
Procedure: FIGS. 6A and 6B show the kinetics of inhibition of daunorubicin efflux produced by P-gp, with compound No. 6. The intracellular daunorubicin fluorescence is measured in the presence of increasing concentrations of No. 6, respectively 0 (circles), 0.12 μM (triangles), 0.22 μM (squares), 0.44 μM (diamonds) and 10 μM (upward-pointing triangles), corresponding to 0, 25, 50, 75 and 100% efflux inhibition effectiveness. FIG. 6A: direct representation, FIG. 6B, Lineweaver & Burke double reciprocal representation.
The intracellular concentration of fluorescent daunorubicin is measured at increasing daunorubicin concentrations, in the presence or absence of fixed concentrations of 0, 0.12 μM, 0.22 μm, 0.44 μM and 10 μM of compound No. 6 corresponding to 0%, 25%, 50%, 75% and 100% efflux inhibition effectiveness according to FIG. 3.

CC(C)(C)OC(=O)[C@H](CCCCNC(=O)OCc1ccccc1)NC[C@@H]1C[C@@H](OCc2ccccc2)CN1C(=O)OC(C)(C)C [No. 6, N^α-Boc-trans-L-4-Hyp(Bn)-ψ(CH2-NH)-L-Lys(Z)-OtBu]
IC50 for P-gp compared with that of reversin 121 [1]: seven times better
% pump inhibition at 10 μM of compound, P-gp ([1]; 10 μM compound, mitoxantrone efflux): 106.9 ± 23.0%
inhibition at 1 h, 0.12 µM ([1]; human, probe mitoxantrone, 0.12 μM compound, according to FIG. 3, read-out: efflux inhibition effectiveness): 25%
inhibition at 1 h, 0.44 µM ([1]; human, probe mitoxantrone, 0.44 μM compound, according to FIG. 3, read-out: efflux inhibition effectiveness): 75%
inhibition at 1 h, 10 µM ([1]; human, probe mitoxantrone, 10 μM compound, according to FIG. 3, read-out: efflux inhibition effectiveness): 100%
inhibition at 1 h, 0.22 μM ([1]; human, probe mitoxantrone, 0.22 μm compound, according to FIG. 3, read-out: efflux inhibition effectiveness): 50%
IC50 ([1]; mitoxantrone efflux, mathematical adjustment of experimental points): 220 ± 30 nM
inhibition at 1 h, 10 µM [2]: < 10%
% pump inhibition at 10 μM of compound, BCRP [3]: 42.3 ± 0.8%
cytotoxicity ([4]; above 10 times the half-maximum-effect concentration): limited
cytotoxicity ([4]; at 10 times the half-maximum-effect concentration): not toxic
mechanism of inhibition [5]: noncompetitive
